Source: US20240003884A1, “METHODS AND COMPOSITIONS USING NON-INVASIVE PLASMA GLYCOMIC AND METABOLIC BIOMARKERS OF POST-TREATMENT CONTROL OF HIV” (priority 2020, published 2024)

How the values were obtained:
[1] = tested on: J-Lat 10.6 cells (latent HIV provirus); conditions: J-Lat clone 10.6
Method: (§1) (FIG. 2A) JLat 5A8 or 10.6 clones were stimulated with appropriate stimuli in the presence or absence of L-glutamic acid or vehicle control (cell culture suitable HCl solution). Geometric mean fluorescence intensity (MFI) of HIV-regulated GFP expression was measured by flow cytometry. Cell viability was determined by LIVE/DEAD aqua staining. (FIG. 2B) J-Lat 5A8 cells (n=3) and (FIG. 2C) J-Lat 10.6 cells (n=3), were treated with PMA/I (2 nM/500 nM), ImmunoCult Human CD3/CD28 T Cell Activator (25 μl per 10^6 cells), or TNFα (10 ng/ml) in the presence or absence of L-glutamic acid (5 mM) or appropriate control. Bar graphs display mean±SD values, and statistical comparisons were performed using two-tailed unpaired t-tests. (FIG. 2D) THP-1 cells were differentiated into macrophage-like cells using PMA. Cells were then treated with L-glutamic acid (5 mM), Pyruvic acid (2 mM), or appropriate controls for 2 hours prior to LPS/IFNγ stimulation for 5 hours. […] Bar graphs display mean±SD, and statistical comparisons were performed using two-tailed unpaired t-tests. […] Bar graphs display mean±SD, and statistical comparisons were performed using two-tailed unpaired t-tests.

[2] = tested on: THP-1 derived macrophage-like cells; assay: LPS/IFNγ-mediated cytokine secretion from THP-1 derived macrophage-like cells (MSD multiplex, ELISA); format: cell-based; conditions: 2 h before LPS/IFNγ for 5 h
Method: as §1
In-vitro examination of the impact of L-glutamic acid and pyruvate on myeloid inflammation. THP1 cells were plated in 24-well plates at a density of 7×10^5 cells per well. To differentiate them into macrophages-like, 100 nM of PMA (Sigma catalog #P8139) was added and incubated for 72 hours. After incubation, media was aspirated, and each well was gently washed twice with R10 media. Cells were then rested for 24 hours on R10 media without PMA. After 24 hours, cells were washed again with serum-free RPMI 1640 media and kept on this media for the rest of experiment. Macrophage-like THP1 cells were pre-incubated with L-glutamic acid (5 mM) or Sodium Pyruvate solution (2 mM, Sigma catalog #S8636-100 ml) for 2 hours before stimulating with Escherichia coli serotype O127:B8 LPS (50 ng/ml; Sigma catalog #L3129-10MG) and IFNγ (10 ng/ml; R&D Systems catalog #285-IF-100, respectively). After 5 hours of incubation with LPS/IFNγ, culture supernatants were collected for cytokine quantitation. Supernatant levels of IL-10, IL-12p70, IL-13, IL-1β, IL-2, IL-4, IL-6, and IL-8 were determined using U-PLEX Proinflam Combo 1 (Meso Scale Diagnostic #K15049k-1) according to manufacture. Levels of TNF-α were quantified using DuoSet ELISA kits (R&D Systems catalog #DY210-05).
Beyond the direct impact on latent viral reactivation, plasma metabolites may exert effects on myeloid inflammation, and such effects may underlie HIV control during ATI. This possibility was tested by examining the effects of L-glutamic acid and pyruvate on lipopolysaccharides (LPS)-mediated secretion of pro-inflammatory cytokines from THP-1 derived macrophage-like cells. These cells are characterized by high basal glycolytic activity, which closely reflects the Warburg-like phenotype observed in HIV-infected individuals37. […] Cells were treated with L-glutamic acid, pyruvate, or appropriate controls for 2 h before stimulating with LPS and IFNγ for 5 h (FIG. 2D).

[3] = tested on: J-Lat 5A8 cells (latent HIV provirus); conditions: J-Lat clone 5A8
Method: as §1
Bar graphs display mean±SD values, and statistical comparisons were performed using two-tailed unpaired t-tests.

[4] = L-glutamic acid 5 mM with stimuli
[5] = L-glutamic acid 5 mM, 24 hours, vs stimuli alone
[6] = pyruvate 2 mM, listed as Pyruvate

Row | SMILES | Cell viability (LIVE/DEAD aqua staining) [1, 4] | PMA/ionomycin-induced reactivation of latent HIV (GFP MFI) [1, 5] | TNFα-induced reactivation of latent HIV (GFP MFI) ([1]; TNFα 10 ng/ml, L-glutamic acid 5 mM, 24 hours) | LPS/IFNγ-mediated IL-6 secretion ([2]; L-glutamic acid 5 mM) | LPS/IFNγ-mediated TNFα secretion ([2]; L-glutamic acid 5 mM) | LPS/IFNγ-mediated anti-inflammatory IL-10 production ([2]; L-glutamic acid 5 mM) | Cell viability (LIVE/DEAD aqua staining) [3, 4] | PMA/ionomycin-induced reactivation of latent HIV (GFP MFI) [3, 5] | αCD3/αCD28-induced reactivation of latent HIV (GFP MFI) [3, 5] | LPS/IFNγ-mediated IL-6 secretion ([2]; pyruvate 2 mM) | LPS/IFNγ-mediated TNFα secretion ([2]; pyruvate 2 mM) | LPS/IFNγ-mediated IL-6 secretion [2, 6] | LPS/IFNγ-mediated TNFα secretion [2, 6]
1 | N[C@@H](CCC(=O)O)C(=O)O [L-glutamic acid] | without impacting viability | inhibited | inhibited | significantly inhibited | significantly inhibited | significantly increased | without impacting viability | significantly inhibited | significantly inhibited | – | – | – | –
2 | CC(=O)C(=O)O [pyruvate, Pyruvic acid] | – | – | – | – | – | – | – | – | – | increased | increased | significantly increased | significantly increased
